For 6 compounds, IC50 results are on record in patent US20240287138A1, “CYCLIC PEPTIDES FOR INHIBITING TNF RECEPTOR 1 ACTIVITY” (Merck Sharp & Dohme LLC, priority 2023, published 2024).

As usually defined, the IC50 is the concentration that gives 50% inhibition.

Numbered stars: 1 amine (or outer) side, 2 acyl side, 3 side chain; on linkers, the order of the positions; unused ones are H or OH. Bridge positions count the residues as written; N and C are the ends. Square brackets hold non-standard residues; d marks the D form. Peptide text beside a SMILES is read from it. Trp(βS-Me,7-OMe) = COc1cccc2c([C@H](C)[C@H](N)C(=O)O)c[nH]c12; dPro(trans-4-NMe2) = CN(C)[C@@H]1CN[C@@H](C(=O)O)C1; Trp(7-CN) = N#Cc1cccc2c(C[C@H](N)C(=O)O)c[nH]c12; Trp(7-Cl) = N[C@@H](Cc1c[nH]c2c(Cl)cccc12)C(=O)O; X15 = C[C@H](c1ccc(O)cc1)[C@H](N[*:1])C(=O)[*:2]; Phe(3-CONH2) = NC(=O)c1cccc(C[C@H](N)C(=O)O)c1; Phe(4-CONH2) = NC(=O)c1ccc(C[C@H](N)C(=O)O)cc1; Phe(4-COOH) = N[C@@H](Cc1ccc(C(=O)O)cc1)C(=O)O; 4Pal(3S-Me) = C[C@@H](c1ccncc1)[C@H](N)C(=O)O; Trp(7-aza) = N[C@@H](Cc1c[nH]c2ncccc12)C(=O)O; Pip(5R-OH) = O=C(O)[C@@H]1CC[C@@H](O)CN1; X4 = O=C([C@H]1C=C[C@@H](N[*:1])C1)[*:2]; X1 = O=C([C@@H]1CC[C@H](N[*:1])C1)[*:2]; Pip(4-aza) = O=C(O)[C@@H]1CNCCN1; hPhe = N[C@@H](CCc1ccccc1)C(=O)O; 4Pal = N[C@@H](Cc1ccncc1)C(=O)O; NMeE = CN[C@@H](CCC(=O)O)C(=O)O; dHyp = O=C(O)[C@H]1C[C@H](O)CN1; Ahp(2) = CCCCC[C@H](N)C(=O)O; αMeS = C[C@](N)(CO)C(=O)O; NMeA = CN[C@@H](C)C(=O)O; Nle = CCCC[C@H](N)C(=O)O; Sar = CNCC(=O)O

In the assay the target is T1, TNFα-induced NF-κB signal transduction pathway (TNFR1 signaling) in THP-1 cells (Homo sapiens, UniProt P19438).
T1 sequence (P19438 30-455): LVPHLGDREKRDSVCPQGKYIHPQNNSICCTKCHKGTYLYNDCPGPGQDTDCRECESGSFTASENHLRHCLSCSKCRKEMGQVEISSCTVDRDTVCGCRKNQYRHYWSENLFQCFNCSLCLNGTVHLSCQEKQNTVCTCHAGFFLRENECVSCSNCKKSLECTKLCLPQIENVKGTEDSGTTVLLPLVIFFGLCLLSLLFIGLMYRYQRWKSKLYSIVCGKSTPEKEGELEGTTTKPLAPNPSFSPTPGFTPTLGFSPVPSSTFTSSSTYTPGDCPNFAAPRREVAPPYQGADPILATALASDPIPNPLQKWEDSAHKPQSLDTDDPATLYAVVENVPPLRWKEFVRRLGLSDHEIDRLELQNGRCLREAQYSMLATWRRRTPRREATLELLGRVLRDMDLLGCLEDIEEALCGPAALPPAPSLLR
Description: THP-1 Lucia NF-κB reporter cell assay, inhibition of TNFα-induced NF-κB signaling. It counts as cell-based. Particulars: THP-1 NF-κB Lucia reporter cells, 10 ng/mL TNFα, 16-18 h, secreted luciferase; read-out: THP-1 IC50. Put shortly:
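Read-out: secreted Lucia luciferase luminescence (QUANTI-Luc) from supernatant after 16-18 h, 37 °C, 10 ng/mL rhTNFα. Peptide pretreatment 1 h at 37 °C; 20,000 cells/well, selection antibiotics omitted. IC50 via 4-parameter logistic model against min/max controls.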
For `CCCC[C@@H]1NC(=O)CSC[C@@H](C(N)=O)NC(=O)[C@H]([C@@H](C)c2c[nH]c3c(OC)cccc23)NC(=O)CN(C)C(=O)[C@H](Cc2ccc(O)cc2)NC(=O)[C@H](Cc2ccc(C(=O)O)cc2)NC(=O)[C@](C)(CO)NC(=O)[C@H](Cc2c[nH]c3c(Cl)cccc23)NC(=O)[C@H](Cc2ccncc2)NC(=O)[C@H](CC(N)=O)NC(=O)[C@H](CCC(=O)O)N(C)C(=O)[C@H](Cc2c[nH]c3ncccc23)NC(=O)[C@H](CO)NC(=O)[C@H]([C@@H](C)c2ccncc2)NC1=O` [SEQ ID NO. 180] ({CH2CO}-[Nle][4Pal(3S-Me)]S[Trp(7-aza)][NMeE]N[4Pal][Trp(7-Cl)][αMeS][Phe(4-COOH)]Y[Sar][Trp(βS-Me,7-OMe)]C-NH2; thioether N-14), the IC50 was found to be 2 nM.

Take `C[C@H]1C(=O)N[C@@H](CC(N)=O)C(=O)N[C@@H](Cc2ccncc2)C(=O)N[C@@H](Cc2c[nH]c3ccccc23)C(=O)N[C@@](C)(CO)C(=O)N[C@@H](Cc2ccc(C(=O)O)cc2)C(=O)N[C@@H](Cc2ccc(O)cc2)C(=O)N(C)CC(=O)N[C@@H](Cc2c[nH]c3ccccc23)C(=O)N[C@@H]2C=C[C@@H](C2)C(=O)N[C@@H](CCc2ccccc2)C(=O)N[C@@H](Cc2ccncc2)C(=O)N[C@@H](CO)C(=O)N[C@@H](Cc2c[nH]c3ccccc23)C(=O)N1C` [SEQ ID NO. 248] (cyclo([4Pal]SW[NMeA]N[4Pal]W[αMeS][Phe(4-COOH)]Y[Sar]W[X4][hPhe])): the IC50 was determined as 10.6 nM.

For the compound `CCCC[C@@H]1NC(=O)[C@@H]2CC[C@@H](C2)NC(=O)[C@H]([C@@H](C)c2c[nH]c3c(OC)cccc23)NC(=O)CN(C)C(=O)[C@H](Cc2ccc(C(N)=O)cc2)NC(=O)[C@H](Cc2ccc(C(N)=O)cc2)NC(=O)[C@](C)(CO)NC(=O)[C@H](Cc2c[nH]c3c(C#N)cccc23)NC(=O)[C@H](Cc2ccc(C(=O)O)cc2)NC(=O)[C@H](CC(N)=O)NC(=O)[C@H]2C[C@H](OC)CN2C(=O)[C@H](Cc2c[nH]c3ccccc23)NC(=O)[C@@H]2CC[C@@H](O)CN2C(=O)[C@H](Cc2ccncc2)NC1=O` [SEQ ID NO. 14] (cyclo([4Pal][Pip(5R-OH)]W[dHyp](Me)N[Phe(4-COOH)][Trp(7-CN)][αMeS][Phe(4-CONH2)][Phe(4-CONH2)][Sar][Trp(βS-Me,7-OMe)][X1][Nle])), the 50% inhibitory concentration (IC50) came out at 0.8 nM.

Take `CCCC[C@@H]1NC(=O)[C@@H]2CC[C@@H](C2)NC(=O)[C@H]([C@@H](C)c2c[nH]c3c(OC)cccc23)NC(=O)CN(C)C(=O)[C@H](Cc2ccc(O)cc2)NC(=O)[C@H](Cc2ccc(C(=O)O)cc2)NC(=O)[C@](C)(CO)NC(=O)[C@H](Cc2c[nH]c3c(Cl)cccc23)NC(=O)[C@H](Cc2ccncc2)NC(=O)[C@H](CC(N)=O)NC(=O)[C@H](CCC(=O)O)N(C)C(=O)[C@H](Cc2c[nH]c3c(Cl)cccc23)NC(=O)[C@@H]2CNCCN2C(=O)[C@H](Cc2ccncc2)NC1=O` [SEQ ID NO. 262] (cyclo([4Pal][Trp(7-Cl)][αMeS][Phe(4-COOH)]Y[Sar][Trp(βS-Me,7-OMe)][X1][Nle][4Pal][Pip(4-aza)][Trp(7-Cl)][NMeE]N)): the concentration for half-maximal inhibition (IC50) was found to be 1.2 nM.

`CCCC[C@@H]1NC(=O)CSC[C@@H](C(N)=O)NC(=O)[C@H]([C@@H](C)c2c[nH]c3c(OC)cccc23)NC(=O)CN(C)C(=O)[C@H](Cc2ccc(O)cc2)NC(=O)[C@H](Cc2ccc(C(=O)O)cc2)NC(=O)[C@](C)(CO)NC(=O)[C@H](Cc2c[nH]c3c(Cl)cccc23)NC(=O)[C@H](Cc2ccncc2)NC(=O)[C@H](CC(N)=O)NC(=O)[C@H](CCC(=O)O)N(C)C(=O)[C@H](Cc2c[nH]c3ncccc23)NC(=O)[C@H](CO)NC(=O)[C@H]([C@H](C)c2ccc(O)cc2)NC1=O` [SEQ ID NO. 243] ({CH2CO}-[Nle][X15]S[Trp(7-aza)][NMeE]N[4Pal][Trp(7-Cl)][αMeS][Phe(4-COOH)]Y[Sar][Trp(βS-Me,7-OMe)]C-NH2; thioether N-14): the IC50 is 3.2 nM.

On to `CCCCC[C@@H]1NC(=O)[C@@H]2CC[C@@H](C2)NC(=O)[C@H]([C@@H](C)c2c[nH]c3c(OC)cccc23)NC(=O)CN(C)C(=O)[C@H](Cc2cccc(C(N)=O)c2)NC(=O)[C@H](Cc2ccc(C(N)=O)cc2)NC(=O)[C@](C)(CO)NC(=O)[C@H](Cc2c[nH]c3c(C#N)cccc23)NC(=O)[C@H](Cc2ccc(C(=O)O)cc2)NC(=O)[C@H](CC(N)=O)NC(=O)[C@H]2C[C@H](N(C)C)CN2C(=O)[C@H](Cc2c[nH]c3ccccc23)NC(=O)[C@@H]2CC[C@@H](O)CN2C(=O)[C@H](Cc2ccncc2)NC1=O` [SEQ ID NO. 128] (cyclo([4Pal][Pip(5R-OH)]W[dPro(trans-4-NMe2)]N[Phe(4-COOH)][Trp(7-CN)][αMeS][Phe(4-CONH2)][Phe(3-CONH2)][Sar][Trp(βS-Me,7-OMe)][X1][Ahp(2)])), for which the IC50 came out at 0.8 nM.
